target: Human CGRP Receptor (Homo sapiens (Human), UniProt O60894+Q16602); experiment: Radioligand binding assay, [125I]-CGRP displacement on SK-N-MC membranes
Description: Tissue Culture. SK-N-MC cells were grown at 37° C. in 5% CO2 as a monolayer in medium consisting of MEM with Earle's salts and L-glutamine (Invitrogen) supplemented with 10% fetal bovine serum (Invitrogen).
Membrane Preparation. Crude membranes were prepared from SK-N-MC cells expressing CGRP receptors. […] The cells were transferred from plates to polypropylene tubes (16×100 mm) and homogenized using a polytron. Homogenates were centrifuged at 32,000×g for 30 min. The pellets were resuspended in cold hypotonic lysis buffer with 0.1% mammalian protease inhibitor cocktail (Sigma) and assayed for protein concentration. The SK-N-MC homogenate was aliquoted and stored at −80° C.
Radioligand Binding Assay. The compounds of invention were solubilized and carried through serial dilutions using 100% DMSO. Aliquots from the compound serial dilutions were further diluted 25 fold into assay buffer (50 mM Tris-Cl pH 7.5, 5 mM MgCl2, 0.005% Triton X-100) and transferred (volume 50 μl) into 96 well assay plates. […] SK-N-MC membranes were thawed, diluted in assay buffer with fresh 0.1% mammalian protease inhibitor cocktail (Sigma), and re-homogenized. SK-N-MC homogenate (7 μg/well) was added in a volume of 100 μl. The assay plates were then incubated at room temperature for 2 h. Assays were stopped by addition of excess cold wash buffer (50 mM Tris-Cl pH 7.5, 0.1% BSA) immediately followed by filtration over glass fiber filters (Whatman GF/B) previously soaked in 0.5% PEI. Non-specific binding was defined with 1 μM beta-CGRP (Bachem). Protein bound radioactivity was determined using a gamma or scintillation counter. […] All compounds of invention were evaluated in at least two separate experiments.

Chain of Human CGRP Receptor (Q16602 23-461): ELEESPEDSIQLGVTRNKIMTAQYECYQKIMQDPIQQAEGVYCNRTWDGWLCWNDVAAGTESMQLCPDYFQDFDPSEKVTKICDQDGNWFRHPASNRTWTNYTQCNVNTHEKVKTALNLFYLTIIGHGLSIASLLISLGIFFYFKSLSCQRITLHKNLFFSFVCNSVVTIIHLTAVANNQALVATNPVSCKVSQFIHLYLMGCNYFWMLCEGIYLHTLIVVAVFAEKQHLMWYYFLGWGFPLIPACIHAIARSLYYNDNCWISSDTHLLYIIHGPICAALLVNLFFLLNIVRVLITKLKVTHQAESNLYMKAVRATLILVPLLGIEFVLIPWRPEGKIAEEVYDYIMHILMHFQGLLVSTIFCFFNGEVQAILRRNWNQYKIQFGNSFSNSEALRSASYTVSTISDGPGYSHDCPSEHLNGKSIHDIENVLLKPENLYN
Chain of Human CGRP Receptor (O60894 27-148): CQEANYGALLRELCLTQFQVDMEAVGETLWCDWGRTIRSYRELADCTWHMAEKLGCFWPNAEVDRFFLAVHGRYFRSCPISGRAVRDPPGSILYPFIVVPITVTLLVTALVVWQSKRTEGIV

Going from Cc1cc(CC(OC(=O)N2CCC(c3cc4ccccc4[nH]c3=O)CC2)c2ncc3n2CCN(Cc2ccccc2)C3)cc2cn[nH]c12 (racemic) [Example 1, (±)-1-(7-Benzyl-5,6,7,8-tetrahydroimidazo[1,5-c]pyrazin-3-yl)-2-(7-methyl-1H-indazol-5-yl)ethyl 4-(2-oxo-1,2-dihydroquinolin-3-yl)piperidine-1-carboxylate] to CCN1CCn2c(cnc2C(Cc2cc(C)c3[nH]ncc3c2)OC(=O)N2CCC(c3cc4ccccc4[nH]c3=O)CC2)C1 (racemic) [Example 2, (±)-1-(7-ethyl-5,6,7,8-tetrahydroimidazo[1,5-a]pyrazin-3-yl)-2-(7-methyl-1H-indazol-5-yl)ethyl 4-(2-oxo-1,2-dihydroquinolin-3-yl)piperidine-1-carboxylate], the IC50 rises from 0.26 nM to 1.7 nM (6.5-fold). The first is the more potent here.

Going from Cc1cc(CC(OC(=O)N2CCC(c3cc4ccccc4[nH]c3=O)CC2)c2ncc3n2CCNC3)cc2cn[nH]c12 (racemic) [Example 3, (±)-2-(7-methyl-1H-indazol-5-yl)-1-(5,6,7,8-tetrahydroimidazo[1,5-a]pyrazin-3-yl)ethyl 4-(2-oxo-1,2-dihydroquinolin-3-yl)piperidine-1-carboxylate] to Cc1cc(CC(OC(=O)N2CCC(c3cc4ccccc4[nH]c3=O)CC2)c2ncc3n2CCN(C2CCCCC2)C3)cc2cn[nH]c12 (racemic) [Example 4, (±)-1-(7-Cyclohexyl-5,6,7,8-tetrahydroimidazo[1,5-a]pyrazin-3-yl)-2-(7-methyl-1H-indazol-5-yl)ethyl 4-(2-oxo-1,2-dihydroquinolin-3-yl)piperidine-1-carboxylate], the IC50 falls from 2.95 nM to 0.22 nM (13-fold).

Source: patent US9695176B2, “Substituted imidazo[1,5-a]pyrazines as CGRP receptor antagonists” (BRISTOL-MYERS SQUIBB COMPANY, priority 2012, dated 2017)
